#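 96-well plates; 48 h exposure; 5 concentrations. Endpoints by linear interpolation between flanking doses. Not reached: highest tested concentration assigned. Definition used: TGI = concentration required for complete inhibition of growth.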
# Legend:
# Test in all cases: NCI tumour cell line growth inhibition, 48 h
# BT-549 breast = tested on: BT-549 breast
# IGROV1 ovarian = tested on: IGROV1 ovarian
# UACC-62 melanoma = tested on: UACC-62 melanoma
# MCF7 breast = tested on: MCF7 breast
# NCI-H460 lung = tested on: NCI-H460 lung
# KM12 colon = tested on: KM12 colon
# HT29 colon = tested on: HT29 colon
# 786-0 renal = tested on: 786-0 renal
# CCRF-CEM leukemia = tested on: CCRF-CEM leukemia
# DU-145 prostate = tested on: DU-145 prostate
# NCI-H522 lung = tested on: NCI-H522 lung
# HCT-116 colon = tested on: HCT-116 colon
# OVCAR-3 ovarian = tested on: OVCAR-3 ovarian
# OVCAR-8 ovarian = tested on: OVCAR-8 ovarian
# UO-31 renal = tested on: UO-31 renal
# SK-MEL-5 melanoma = tested on: SK-MEL-5 melanoma
# TK-10 renal = tested on: TK-10 renal
# MOLT-4 leukemia = tested on: MOLT-4 leukemia
# OVCAR-5 ovarian = tested on: OVCAR-5 ovarian
# HS 578T breast = tested on: HS 578T breast
# LOX IMVI melanoma = tested on: LOX IMVI melanoma
# A498 renal = tested on: A498 renal
# HOP-62 NSCLC = tested on: HOP-62 NSCLC
# A549 NSCLC = tested on: A549 NSCLC
# SF-268 CNS = tested on: SF-268 CNS
# MALME-3M melanoma = tested on: MALME-3M melanoma
# UACC-257 melanoma = tested on: UACC-257 melanoma
# PC-3 prostate = tested on: PC-3 prostate
# EKVX NSCLC = tested on: EKVX NSCLC
# COLO 205 colon = tested on: COLO 205 colon
# MDA-N = tested on: MDA-N
# SW-620 colon = tested on: SW-620 colon
# HCC-2998 colon = tested on: HCC-2998 colon
# NCI-H23 lung = tested on: NCI-H23 lung
# CAKI-1 renal = tested on: CAKI-1 renal
# SNB-19 CNS = tested on: SNB-19 CNS
# NCI/ADR-RES ovarian = tested on: NCI/ADR-RES ovarian
# NCI-H226 lung = tested on: NCI-H226 lung
# SR leukemia = tested on: SR leukemia
# SNB-75 CNS = tested on: SNB-75 CNS
# ACHN renal = tested on: ACHN renal
# SK-MEL-28 melanoma = tested on: SK-MEL-28 melanoma
# SK-OV-3 ovarian = tested on: SK-OV-3 ovarian
# K-562 leukemia = tested on: K-562 leukemia
# MDA-MB-231 breast = tested on: MDA-MB-231 breast
# RXF 393 renal = tested on: RXF 393 renal
# M14 melanoma = tested on: M14 melanoma
# HOP-92 NSCLC = tested on: HOP-92 NSCLC
# RPMI-8226 leukemia = tested on: RPMI-8226 leukemia
# SN12C renal = tested on: SN12C renal
# U251 CNS = tested on: U251 CNS
# SK-MEL-2 melanoma = tested on: SK-MEL-2 melanoma
# SF-295 CNS = tested on: SF-295 CNS
# OVCAR-4 ovarian = tested on: OVCAR-4 ovarian
# HL-60(TB) leukemia = tested on: HL-60(TB) leukemia
# T-47D breast = tested on: T-47D breast
# HCT-15 colon = tested on: HCT-15 colon
# MDA-MB-435 = tested on: MDA-MB-435
# SF-539 CNS = tested on: SF-539 CNS
compound,measurement,setting,value
O=c1c2c3c(sc2nc(CN2CCNCC2)n1-c1ccccc1)CCCC3,TGI,BT-549 breast,> 100 µM
same,TGI,IGROV1 ovarian,> 100 µM
same,TGI,UACC-62 melanoma,> 100 µM
same,TGI,MCF7 breast,> 100 µM
same,TGI,NCI-H460 lung,> 100 µM
same,TGI,KM12 colon,> 100 µM
same,TGI,HT29 colon,> 100 µM
same,TGI,786-0 renal,> 100 µM
same,TGI,CCRF-CEM leukemia,> 100 µM
same,TGI,DU-145 prostate,> 100 µM
same,TGI,NCI-H522 lung,> 100 µM
same,TGI,HCT-116 colon,> 100 µM
same,TGI,OVCAR-3 ovarian,> 100 µM
same,TGI,OVCAR-8 ovarian,> 100 µM
same,TGI,UO-31 renal,> 100 µM
same,TGI,SK-MEL-5 melanoma,> 100 µM
same,TGI,TK-10 renal,> 100 µM
same,TGI,MOLT-4 leukemia,> 100 µM
same,TGI,OVCAR-5 ovarian,> 100 µM
same,TGI,HS 578T breast,> 100 µM
same,TGI,LOX IMVI melanoma,> 100 µM
same,TGI,A498 renal,> 100 µM
same,TGI,HOP-62 NSCLC,> 100 µM
same,TGI,A549 NSCLC,> 100 µM
same,TGI,SF-268 CNS,> 100 µM
same,TGI,MALME-3M melanoma,> 100 µM
same,TGI,UACC-257 melanoma,> 100 µM
same,TGI,PC-3 prostate,> 100 µM
same,TGI,EKVX NSCLC,> 100 µM
same,TGI,COLO 205 colon,> 100 µM
same,TGI,MDA-N,> 100 µM
same,TGI,SW-620 colon,> 100 µM
same,TGI,HCC-2998 colon,> 100 µM
same,TGI,NCI-H23 lung,> 100 µM
same,TGI,CAKI-1 renal,> 100 µM
same,TGI,SNB-19 CNS,> 100 µM
same,TGI,NCI/ADR-RES ovarian,> 100 µM
same,TGI,NCI-H226 lung,> 100 µM
same,TGI,SR leukemia,> 100 µM
same,TGI,SNB-75 CNS,> 100 µM
same,TGI,ACHN renal,> 100 µM
same,TGI,SK-MEL-28 melanoma,> 100 µM
same,TGI,SK-OV-3 ovarian,> 100 µM
same,TGI,K-562 leukemia,> 100 µM
same,TGI,MDA-MB-231 breast,> 100 µM
same,TGI,RXF 393 renal,> 100 µM
same,TGI,M14 melanoma,> 100 µM
same,TGI,HOP-92 NSCLC,> 100 µM
same,TGI,RPMI-8226 leukemia,> 100 µM
same,TGI,SN12C renal,> 100 µM
same,TGI,U251 CNS,> 100 µM
same,TGI,SK-MEL-2 melanoma,> 100 µM
same,TGI,SF-295 CNS,> 100 µM
same,TGI,OVCAR-4 ovarian,82.9 µM
same,TGI,HL-60(TB) leukemia,> 100 µM
same,TGI,T-47D breast,> 100 µM
same,TGI,HCT-15 colon,> 100 µM
O=C(Nc1ccccc1Cl)c1cc(S(=O)(=O)Nc2n[nH]c(=O)n2-c2ccccc2)c(S)cc1Cl,TGI,BT-549 breast,> 100 µM
same,TGI,IGROV1 ovarian,> 100 µM
same,TGI,UACC-62 melanoma,> 100 µM
same,TGI,MCF7 breast,> 100 µM
same,TGI,NCI-H460 lung,> 100 µM
same,TGI,KM12 colon,> 100 µM
same,TGI,HT29 colon,> 100 µM
same,TGI,786-0 renal,> 100 µM
same,TGI,CCRF-CEM leukemia,> 100 µM
same,TGI,DU-145 prostate,> 100 µM
same,TGI,OVCAR-3 ovarian,> 100 µM
same,TGI,MDA-MB-435,> 100 µM
same,TGI,OVCAR-8 ovarian,> 100 µM
same,TGI,UO-31 renal,> 100 µM
same,TGI,SK-MEL-5 melanoma,> 100 µM
same,TGI,MOLT-4 leukemia,> 100 µM
same,TGI,OVCAR-5 ovarian,> 100 µM
same,TGI,HS 578T breast,> 100 µM
same,TGI,LOX IMVI melanoma,> 100 µM
same,TGI,A498 renal,> 100 µM
same,TGI,HOP-62 NSCLC,> 100 µM
same,TGI,SF-268 CNS,> 100 µM
same,TGI,MALME-3M melanoma,> 100 µM
same,TGI,UACC-257 melanoma,> 100 µM
same,TGI,EKVX NSCLC,> 100 µM
same,TGI,COLO 205 colon,> 100 µM
same,TGI,MDA-N,> 100 µM
same,TGI,SW-620 colon,> 100 µM
same,TGI,HCC-2998 colon,> 100 µM
same,TGI,NCI-H23 lung,> 100 µM
same,TGI,CAKI-1 renal,> 100 µM
same,TGI,SF-539 CNS,> 100 µM
same,TGI,SNB-19 CNS,> 100 µM
same,TGI,NCI/ADR-RES ovarian,> 100 µM
same,TGI,NCI-H226 lung,> 100 µM
same,TGI,SR leukemia,> 100 µM
same,TGI,SK-MEL-28 melanoma,> 100 µM
same,TGI,SK-OV-3 ovarian,> 100 µM
same,TGI,MDA-MB-231 breast,> 100 µM
same,TGI,RXF 393 renal,> 100 µM
same,TGI,M14 melanoma,> 100 µM
same,TGI,HOP-92 NSCLC,> 100 µM
same,TGI,RPMI-8226 leukemia,> 100 µM
same,TGI,SN12C renal,> 100 µM
same,TGI,U251 CNS,> 100 µM
same,TGI,SK-MEL-2 melanoma,> 100 µM
same,TGI,SF-295 CNS,> 100 µM
same,TGI,OVCAR-4 ovarian,> 100 µM
same,TGI,HL-60(TB) leukemia,> 100 µM
same,TGI,T-47D breast,> 100 µM
same,TGI,HCT-15 colon,> 100 µM

# Source: PubChem BioAssay (NCI)
